# EP3828160A1, “TREPROSTINIL DERIVATIVE COMPOUNDS AND METHODS OF USING SAME” (Corsair Pharma, Inc., priority 2014, dated 2016)
# Key:
# Assay type in all cases: in vitro ADME
# [1] = Human plasma stability assay (Test 2); settings: 0.5 uM test compound, 37°C, up to 120 minutes, heparinated human plasma, read-out: Test 2 T1/2
# Experimental: (§1) Four assays on compounds were carried out by the following methods with the results shown in Table I. • (Test 1) Human liver microsomal stability assay was conducted by incubating 0.5 uM test compounds at 37°C for up to 45 minutes in 50 mM of potassium phosphate buffer (pH 7.4) containing 0.5 mg of microsomal protein and 50 µL of NADPH generating system (7.8 mg of glucose 6-phosphate, 1.7 mg of NADPH and 6 U of glucose 6-phosphate dehydrogenase per mL in 2% w/v of sodium bicarbonate). At 0, 5, 15, 30 and 45 min., an aliquot was taken, quenched with internal standard containing stop solution. No co-factor controls at 45 minutes were also prepared. After incubation, the samples were analyzed by LC-MS/MS. Peak area ratios of analyte to internal standard were used to calculate the intrinsic clearance. The intrinsic clearance (CLint) was determined from the first order elimination constant by non-linear regression. Formation of the active drug Compound A over the time course was also monitored by LC-MS/MS analysis. • (Test 2) Human plasma stability assay was conducted by incubating 0.5 uM test compounds at 37°C for up to 120 minutes in heparinated human plasma. At 0, 5, 15, 30, 60 and 120 […] min., an aliquot was taken, quenched with internal standard containing stop solution. After incubation, the samples were analyzed by LC-MS/MS. Peak area ratios of analyte to internal standard were used to calculate the half-life. Formation of the active drug Compound A over the time course was also monitored by LC-MS/MS analysis. • (Test 3) Human skin homogenate stability assay was conducted in a similar way as the human liver microsomal stability assay, by incubating 0.5 uM test compounds at 37°C for up to 45 minutes in 50 mM of potassium phosphate buffer (pH 7.4) containing 0.5 mg of human skin homogenate protein and 50 µL of NADPH generating system (7.8 mg of glucose 6-phosphate, 1.7 mg of NADPH and 6 U of glucose 6-phosphate dehydrogenase per mL in 2% w/v of sodium bicarbonate). At 0, 5, 15, 30 and 45 min., an aliquot was taken, quenched with internal standard containing stop solution. No co-factor controls at 45 minutes were also prepared. After incubation, the samples were analyzed by LC-MS/MS. Peak area ratios of analyte to internal standard were used to calculate the intrinsic clearance. The intrinsic clearance (CLint) was determined from the first order elimination constant by non-linear regression. Formation of the active drug Compound A over the time course was also monitored by LC-MS/MS analysis. • (Test 4) Human hepatocyte stability assay was conducted by incubating 0.5 uM test compound at 37°C for up to 240 minutes. Cryopreserved human hepatocytes were obtained from Celsis IVT (Baltimore, Maryland). Cells were thawed according to vendor's instructions and were suspended in William's Medium E to 0.5 million cells/mL. Test compounds were spiked into the cell suspension to initiate the reactions. At 0, 10,30,60, 120 and 240 min., an aliquot was taken, quenched with internal standard containing stop solution. After incubation, the samples were analyzed by LC-MS/MS. Peak area ratios of analyte to internal standard were used to calculate the intrinsic clearance. The intrinsic clearance (CLint) was determined from the first order elimination constant by non-linear regression. Formation of the active drug Compound A over the time course was also monitored by LC-MS/MS analysis.
# [2] = Human liver microsomal stability assay (Test 1); settings: liver microsomes, 0.5 uM test compound, 37°C, up to 45 minutes, 0.5 mg microsomal protein, NADPH generating system, pH 7.4, read-out: Test 1 T1/2
# Experimental: as §1
# [3] = Human skin homogenate stability assay (Test 3); settings: 0.5 uM test compound, 37°C, up to 45 minutes, 0.5 mg human skin homogenate protein, NADPH generating system, pH 7.4, read-out: Test 3 T1/2
# Experimental: as §1
Structure (SMILES),half-life at 0.5 uM [1] [min],half-life at 0.5 uM [2] [min],half-life at 0.5 uM [3] [min]
"CCCCCC(O)CCC1C(O)CC2Cc3c(cccc3OCC(=O)OCC3CC3)CC21 (stereo not shown) [Compound 1, [2-Hydroxy-1-(3-hydroxy-octyl)-2,3,3a,4,9,9a-hexahydro-1H-cyclopenta[b]naphthalen-5-yloxy]-acetic acid cyclopropylmethyl ester]",< 15,< 15,–
"CCCCCC(O)CCC1C(O)CC2Cc3c(cccc3OCC(=O)OCCCF)CC21 (stereo not shown) [Compound 4, [2-Hydroxy-1-(3-hydroxy-octyl)-2,3,3a,4,9,9a-hexahydro-1H-cyclopenta[b]naphthalen-5-yloxy]-acetic acid 3-fluoro-propyl ester]",< 15,< 15,–
"CCCCCC(O)CCC1C(O)CC2Cc3c(cccc3OCC(=O)OC3CCOC3)CC21 (stereo not shown) [Compound 5, [2-Hydroxy-1-(3-hydroxy-octyl)-2,3,3a,4,9,9a-hexahydro-1H-cyclopenta[b]naphthalen-5-yloxy]-acetic acid tetrahydro-furan-3-yl ester]",< 15,< 15,–
"CCCCCC(O)CCC1C(O)CC2Cc3c(cccc3OCC(=O)OC(C)C(=O)OC)CC21 (stereo not shown) [Compound 6, 2-{2-[2-Hydroxy-1-(3-hydroxy-octyl)-2,3,3a,4,9,9a-hexahydro-1H-cyclopenta[b]naphthalen-5-yloxy]-acetoxy}-propionic acid methyl ester]",< 15,< 15,–
"CCCCCC(O)CCC1C(O)CC2Cc3c(cccc3OCC(=O)NCCN)CC21 (stereo not shown) [Compound 8, N-(2-Amino-ethyl)-2-[2-hydroxy-1-(3-hydroxy-octyl)-2,3,3a,4,9,9a-hexahydro-1H-cyclopenta[b]naphthalen-5-yloxy]-acetamide]",–,31 to 60,–
"CCCCCC(O)CCC1C(O)CC2Cc3c(cccc3OCC(=O)OCCO)CC21 (stereo not shown) [Compound 9, [2-Hydroxy-1-(3-hydroxy-octyl)-2,3,3a,4,9,9a-hexahydro-1H-cyclopenta[b]naphthalen-5-yloxy]-acetic acid 2-hydroxy-ethyl ester]",–,< 15,–
"CCCCCC(O)CCC1C(O)CC2Cc3c(cccc3OCC(=O)OCCOC)CC21 (stereo not shown) [Compound 10, [2-Hydroxy-1-(3-hydroxy-octyl)-2,3,3a,4,9,9a-hexahydro-1H-cyclopenta[b]naphthalen-5-yloxy]-acetic acid 2-methoxy-ethyl ester]",–,< 15,–
"CCCCCC(O)CCC1C(O)CC2Cc3c(cccc3OCC(=O)NCCCO)CC21 (stereo not shown) [Compound 11, 2-[2-Hydroxy-1-(3-hydroxy-octyl)-2,3,3a,4,9,9a-hexahydro-1H-cyclopenta[b]naphthalen-5-yloxy]-N-(3-hydroxy-propyl)-acetamide]",> 60,< 15,–
"CCCCCC(O)CCC1C(O)CC2Cc3c(cccc3OCC(=O)NCC(=O)OC)CC21 (stereo not shown) [Compound 12, {2-[2-Hydroxy-1-(3-hydroxy-octyl)-2,3,3a,4,9,9a-hexahydro-1H-cyclopenta[b]naphthalen-5-yloxy]-acetylamino}-acetic acid methyl ester]",> 60,< 15,–
"CCCCCC(O)CCC1C(O)CC2Cc3c(cccc3OCC(=O)OC)CC21 (stereo not shown) [Compound 15, [2-Hydroxy-1-(3-hydroxy-octyl)-2,3,3a,4,9,9a-hexahydro-1H-cyclopenta[b]naphthalen-5-yloxy]-acetic acid methyl ester]",< 15,< 15,< 15
"CCCCCC(O)CCC1C(O)CC2Cc3c(cccc3OCC(=O)OCC(C)(C)C)CC21 (stereo not shown) [Compound 16, [2-Hydroxy-1-(3-hydroxy-octyl)-2,3,3a,4,9,9a-hexahydro-1H-cyclopenta[b]naphthalen-5-yloxy]-acetic acid 2,2-dimethyl-propyl ester]",15 to 30,< 15,15 to 30
"CCCCCC(O)CCC1C(O)CC2Cc3c(cccc3OCC(=O)OC(C)C(C)C)CC21 (stereo not shown) [Compound 17, [2-Hydroxy-1-(3-hydroxy-octyl)-2,3,3a,4,9,9a-hexahydro-1H-cyclopenta[b]naphthalen-5-yloxy]-acetic acid 1,2-dimethyl-propyl ester]",31 to 60,< 15,15 to 30
"CCCCCC(O)CCC1C(O)CC2Cc3c(cccc3OCC(=O)OC(C)C(C)(C)C)CC21 (stereo not shown) [Compound 18, [2-Hydroxy-1-(3-hydroxy-octyl)-2,3,3a,4,9,9a-hexahydro-1H-cyclopenta[b]naphthalen-5-yloxy]-acetic acid 1,2,2-trimethyl-propyl ester]",> 60,< 15,> 60
"CCCCCC(O)CCC1C(O)CC2Cc3c(cccc3OCC(=O)OC3CC4CCC3C4)CC21 (stereo not shown) [Compound 19, [2-Hydroxy-1-(3-hydroxy-octyl)-2,3,3a,4,9,9a-hexahydro-1H-cyclopenta[b]naphthalen-5-yloxy]-acetic acid bicyclo[2.2.1]hept-2-yl ester]",31 to 60,< 15,15 to 30
"CCCCCC(O)CCC1C(O)CC2Cc3c(cccc3OCC(=O)OC(C)C)CC21 (stereo not shown) [Compound 20, [2-Hydroxy-1-(3-hydroxy-octyl)-2,3,3a,4,9,9a-hexahydro-1H-cyclopenta[b]naphthalen-5-yloxy]-acetic acid isopropyl ester]",31 to 60,< 15,< 15
"CCCCCC(O)CCC1C(O)CC2Cc3c(cccc3OCC(=O)NCC(F)(F)C(F)(F)F)CC21 (stereo not shown) [Compound 21, 2-[2-Hydroxy-1-(3-hydroxy-octyl)-2,3,3a,4,9,9a-hexahydro-1H-cyclopenta[b]naphthalen-5-yloxy]-N-(2,2,3,3,3-pentafluoro-propyl)-acetamide]",> 60,< 15,–
"CCCCCC(O)CCC1C(OC(=O)CCCC)CC2Cc3c(cccc3OCC(=O)OC)CC21 (stereo not shown) [Compound 22, Pentanoic acid 1-(3-hydroxy-octyl)-5-methoxycarbonylmethoxy-2,3,3a,4,9,9a-hexahydro-1H-cyclopenta[b]naphthalen-2-yl ester]",> 60,< 15,> 60
"CCCCCC(O)CCC1C(OC(=O)CC(C)C)CC2Cc3c(cccc3OCC(=O)OC)CC21 (stereo not shown) [Compound 23, 3-Methyl-butyric acid 1-(3-hydroxy-octyl)-5-methoxycarbonylmethoxy-2,3,3a,4,9,9a-hexahydro-1H-cyclopenta[b]naphthalen-2-yl ester]",> 60,< 15,–
"CCCCCC(O)CCC1C(OC(=O)C2CC2)CC2Cc3c(cccc3OCC(=O)OC)CC21 (stereo not shown) [Compound 24, Cyclopropanecarboxylic acid 1-(3-hydroxy-octyl)-5-methoxycarbonylmethoxy-2,3,3a,4,9,9a-hexahydro-1H-cyclopenta[b]naphthalen-2-yl ester]",> 60,< 15,–
"CCCCCC(O)CCC1C(OC(=O)CCC(=O)OCC)CC2Cc3c(cccc3OCC(=O)OC)CC21 (stereo not shown) [Compound 27, Succinic acid ethyl ester 1-(3-hydroxy-octyl)-5-methoxycarbonylmethoxy-2,3,3a,4,9,9a-hexahydro-1H-cyclopenta[b]naphthalen-2-yl ester]",> 60,< 15,–
"CCCCCC(O)CCC1C(O)CC2Cc3c(cccc3OCC(=O)OC(C)(C)C)CC21 (stereo not shown) [Compound 28, [2-Hydroxy-1-(3-hydroxy-octyl)-2,3,3a,4,9,9a-hexahydro-1H-cyclopenta[b]naphthalen-5-yloxy]-acetic acid tert-butyl ester]",15 to 30,< 15,–
